Data on two compounds can be found in US8426420B2, “Heterocyclic pyrazole-carboxamidesas P2Y12 antagonists” (Sanofi, priority 2007, dated 2013).

As a reminder, the IC50 is the point on the concentration scale where inhibition reaches its midpoint.

In experiment [1] the target is human P2Y12 receptor (Homo sapiens, UniProt Q9H244). Kind of experiment: Human P2Y12 recombinant cell membrane binding assay with 33P 2MeS-ADP. The note with it: competition against 33P 2MeS-ADP, membranes of CHO cells with recombinant human P2Y12 receptor. The method in brief:
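CHO membranes expressing human P2Y12 (20 μg/ml stock) preincubated 15 min at RT with compound in HEPES pH 7.4 buffer, then 33P 2MeS-ADP (1.61 nM working solution) added for 20 min at RT. Bound label filtered and counted; four-point, five-fold series from 10 μM final, triplicate, four-parameter fit.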

Experiment [2] relates to human platelet rich plasma. The experiment is described as follows: Inhibition of human platelet aggregation, 96-well assay. The class given is cell-based. The note with it: Homo sapiens, Platelet, 20 min. The method in brief:
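ADP-induced aggregation read as 650 nm absorbance every minute for 20 min at 37 °C, with shaking between reads. PRP (~3×E8 platelets/ml, diluted with PPP, ACD-A blood from healthy volunteers) was exposed to compound for 5 min before adding a 40 μM ADP stock (15 μl into 150 μl).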

For experiment [3], the system named is human platelet rich plasma. Kind of experiment: Inhibition of human platelet aggregation, "Born"-method using single cuvettes. The class given is cell-based. To be noted: 0.1 h, ADP-induced aggregation, 6 minutes.

human P2Y12 receptor, sequence (Q9H244 whole entry): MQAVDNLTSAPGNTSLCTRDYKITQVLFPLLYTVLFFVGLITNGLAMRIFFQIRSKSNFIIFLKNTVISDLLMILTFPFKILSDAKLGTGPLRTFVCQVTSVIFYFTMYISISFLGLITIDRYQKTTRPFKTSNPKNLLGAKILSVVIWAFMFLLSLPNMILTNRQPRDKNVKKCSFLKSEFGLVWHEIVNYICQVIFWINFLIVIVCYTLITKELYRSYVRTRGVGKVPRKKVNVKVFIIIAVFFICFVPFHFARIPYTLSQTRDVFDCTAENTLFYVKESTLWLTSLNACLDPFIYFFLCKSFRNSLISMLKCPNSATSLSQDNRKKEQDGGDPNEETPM

Regarding `CCCOC(=O)N1CCN(C(=O)CNC(=O)c2cc(OCC(=O)N3CCC[C@H]3C(=O)NC3CCC3)n(-c3ccccc3)n2)CC1` [Example 210, 4-[2-({5-[2-((S)-2-Cyclobutylcarbamoyl-pyrrolidin-1-yl)-2-oxo-ethoxy]-1-phenyl-1H-pyrazole-3-carbonyl}-amino)-acetyl]-piperazine-1-carboxylic acid propyl ester], the figures for the IC50 in experiment [1], in experiment [2] and in experiment [3] were 72 nM, 120 nM and 30 nM, respectively.
In the same order, the values of `CCOC(=O)N1CCN(C(=O)[C@H](CCC(=O)O)NC(=O)c2cc(OCC(=O)N3CCC[C@H]3C(=O)NC3CC3)n(-c3ccccc3)n2)CC1` [Example 1, 4-[(S)-4-Carboxy-2-({5-[2-((S)-2-cyclopropylcarbamoyl-pyrrolidin-1-yl)-2-oxo-ethoxy]-1-phenyl-1H-pyrazole-3-carbonyl}-amino)-butyryl]-piperazine-1-carboxylic acid ethyl ester] are 270 nM, 10 nM and 210 nM.
